2 molecules from ChEMBL document CHEMBL3580544, “Interaction of α-Hexylcinnamaldehyde with a Biomembrane Model: A Possible MDR Reversal Mechanism” (J Nat Prod, 2015) can be followed below.

The nature of data set [1]: Antioxidant activity assessed as inhibition of AAPH-induced crocin oxidation in hydrophilic medium at 5 to 500 uM by crocin bleaching assay. The data set is classed as physicochemical.
The nature of data set [2]: Antioxidant activity assessed as inhibition of AAPH-induced crocin oxidation at 5 to 500 uM in lipophilic medium containing linoleic acid by crocin bleaching assay. The data set is classed as physicochemical.
The nature of data set [3]: Induction of thermotropic behavior changes in dimyristoylphosphatidylcholine multilamellar vesicles assessed as changes in pre-transition peak at 0.015 to 0.15 molar fraction by differential scanning calorimetry. For orientation: In DSC, transitions show as peaks or steps in heat flow.
Data set [4] is described as follows: Induction of thermotropic behavior changes in dimyristoylphosphatidylcholine multilamellar vesicles assessed as changes in main transition peak at 0.015 to 0.15 molar fraction by differential scanning calorimetry.
Data set [5] in a line: Induction of thermotropic behavior changes in dimyristoylphosphatidylcholine multilamellar vesicles assessed as reduction in transition temperature at 0.015 to 0.15 molar fraction by differential scanning calorimetry.
Data set [6] can be described thus: Induction of thermotropic behavior changes in dimyristoylphosphatidylcholine multilamellar vesicles assessed as reduction in enthalpy of phase transition at 0.015 to 0.15 molar fraction by differential scanning calorimetry.
Data set [7] is described as follows: Induction of thermotropic behavior changes in dimyristoylphosphatidylcholine multilamellar vesicles assessed as reduction in cooperativity among phospholipid molecules by measuring peak width at half height at 0.015 to 0.15 molar fraction by differential scanning calorimetry.
Data set [8] can be described thus: Induction of thermotropic behavior changes in dimyristoylphosphatidylcholine multilamellar vesicles assessed as reduction in enthalpy of phase transition at 0.015 molar fraction by differential scanning calorimetry. Also noted: scale not given: the % may be the effect or the level left.
The nature of data set [9]: Induction of thermotropic behavior changes in dimyristoylphosphatidylcholine multilamellar vesicles assessed as reduction in enthalpy of phase transition at 0.03 molar fraction by differential scanning calorimetry. On the set-up: scale not given: the % may be the effect or the level left.
A short description of data set [10]: Induction of thermotropic behavior changes in dimyristoylphosphatidylcholine multilamellar vesicles assessed as reduction in enthalpy of phase transition at 0.045 molar fraction by differential scanning calorimetry. On the set-up: scale not given: the % may be the effect or the level left.
Data set [11] can be described thus: Induction of thermotropic behavior changes in dimyristoylphosphatidylcholine multilamellar vesicles assessed as reduction in enthalpy of phase transition at 0.06 molar fraction by differential scanning calorimetry. On the set-up: scale not given: the % may be the effect or the level left.
Data set [12] is described as follows: Induction of thermotropic behavior changes in dimyristoylphosphatidylcholine multilamellar vesicles assessed as reduction in enthalpy of phase transition at 0.09 molar fraction by differential scanning calorimetry. Also noted: scale not given: the % may be the effect or the level left.
Data set [13] concerns Lipid bilayer. The experiment in a line: Induction of thermotropic behavior changes in dimyristoylphosphatidylcholine multilamellar vesicles assessed as reduction in enthalpy of phase transition at 0.12 molar fraction by differential scanning calorimetry. Also noted: scale not given: the % may be the effect or the level left.
Data set [14] is described as follows: Induction of thermotropic behavior changes in dimyristoylphosphatidylcholine multilamellar vesicles assessed as reduction in enthalpy of phase transition at 0.15 molar fraction by differential scanning calorimetry. Also noted: scale not given: the % may be the effect or the level left.
In data set [15] the test system is Lipid bilayer. The experiment in a line: Binding affinity to external surface of dimyristoylphosphatidylcholine multilamellar vesicles at 0.09 molar fraction by differential scanning calorimetry.
A short description of data set [16]: Drug absorption in dimyristoylphosphatidylcholine multilamellar vesicles at 0.09 molar fraction by differential scanning calorimetry. The data set is classed as physicochemical.
Data set [17] can be described thus: Drug absorption in dimyristoylphosphatidylcholine multilamellar vesicles at 0.045 molar fraction using lipophilic medium as carrier by differential scanning calorimetry. Particulars: octanol/water. The data set is classed as physicochemical.
A short description of data set [18]: Pro-oxidant activity in lipophilic medium containing linoleic acid by crocin bleaching assay. The data set is classed as functional.
Data set [19] is described as follows: Pro-oxidant activity in hydrophilic medium by crocin bleaching assay. The data set is classed as functional.

Calls of active or inactive are those of the source. The rule behind the calls is not given here.

As to `Cc1c(C)c2c(c(C)c1O)CCC(C)(C(=O)O)O2` (stereo unspecified) [TROLOX], the outcome in data set [1] and in data set [2] was Active.
With `CCCCCC/C(C=O)=C\c1ccccc1`, the outcome (in data set [3]; in data set [4]; in the data set with Lipid bilayer [15]) was Active. For the same molecule, the Activity result in data set [5] is “Dose-dependent effect”; in data set [6], “Dose-dependent effect”; in data set [7], “Dose-dependent effect”; in [8] it was 95%; in data set [9] it was 96%; in data set [10], 98.3%. Also, the Activity in data set [11] was 91.7%; in data set [12], 79.5%; with Lipid bilayer [13], 71.2%; in [14], 74.1%; in data set [1], “Active”; in data set [2], “Active”. Moreover, the Drug uptake result in data set [16] and in [17] was “Active” each time. Moreover, the outcome in data set [18] and in data set [19] was inactive.
